# From patent US20250295679A1, “Compositions and Dosage Forms for Treatment of HPV Infection and HPV-Induced Neoplasia” (priority 2022, published 2025)
# Like-named read-outs stand apart in the source and are kept apart here.
# Tests used:
# [1] = test system: HEK293 cells; experiment: In vitro cytotoxicity, XTT, five days
# Experimental: (§1) Three compounds (Compound I, Compound II and Compound III) were solubilized at 40 mM in DMSO and stored at −20° C. The test compounds were evaluated using a high test concentration of 50 μM. Serial half-logarithmic dilutions were performed for the in vitro cytotoxicity assays.
# (§2) Cells listed in Table 70 were enumerated by Trypan Blue Dye exclusion method and seeded in the interior wells of a 96 well flat bottom microtiter plate at 100 μL/well. Proliferating cells were incubated overnight at 37° C./5% CO2 to allow the cells to adhere to the plates at approximately 70% confluency. Tissue culture medium was removed and replaced with 100 μL/well of fresh medium. One-hundred microliters (100 μL) of each compound at six concentrations was transferred to the 96-well plate containing the cells in triplicate. Table 70 lists the cell line, type of cell, source of cell stock, base tissue culture medium supplemented with 10% fetal bovine serum, 2 mM L-glutamine, 100 U/mL penicillin and 100 μg/mL streptomycin, and microtiter plate seeding density.
# (§3) Following incubation at 37° C. in a 5% CO2 incubator for five days, the test plates were stained with the tetrazolium dye XTT (2,3-bis(2-methoxy-4-nitro-5-sulfopheny1)-5-[(phenylamino)carbonyl]-2H-tetrazolium hydroxide). XTT-tetrazolium was metabolized by the mitochondrial enzymes of metabolically active cells to a soluble formazan product. XTT solution was prepared daily as a stock of 1 mg/ml in RPM11640. Phenazine methosulfate (PMS) solution was prepared at 0.15 mg/ml in PBS and stored in the dark at −20° C. XTT/PMS stock was prepared immediately before use by adding 40 μL of PMS per ml of XTT solution. Fifty microliters of XTT/PMS were added to each well of the plate and the plate was reincubated for 4 hours at 37° C. Plates were sealed with adhesive plate sealers and shaken gently or inverted several times to mix the soluble formazan product and the plate was read spectrophotometrically at 450/650 nm with a Molecular Devices Vmax plate reader.
# (§4) Microsoft Excel 2010 was used to analyze and graph the raw data. […] Raw data for cytotoxicity with a graphic representation of the data are provided in a printout summarizing the compound effect on cell viability.
# (§5) Compounds I, II, and III were evaluated for cytotoxicity to proliferating Hs27, HeLa, C33A and HEK293 cells by measuring cell viability using XTI tetrazolium dye following five days in culture (Table 71).
# [2] = Bulk (accelerated) stability, one week, HPLC and XRPD; conditions: initial chemical purity before storage
# Experimental: Bulk stability: Accelerated stability experiments were conducted at 25° C./92% RH and 40° C./75% RH in an open container, 60° C. in a tight container for one week.
# Samples were characterized by XRPD and HPLC and inspected for color change.
# Accelerated stability experiments were conducted at 25° C./92% RH in an open container, at 40° C./75% RH in an open container, and at 60° C. in a tight container for one week.
# [3] = Tablet stability study (storage, purity by HPLC); assay type: physicochemical; conditions: for Degradation of tablets: within one month at 40° C. and 75% RH
# Experimental: Tablets were prepared using the excipients and excipient ratios shown in the first column of the following tables. The tablets were then stored under the conditions indicated and periodically sampled and tested for purity by HPLC.
# [4] = Behavior under compression, grinding and granulation simulation (XRPD); assay type: physicochemical
# Experimental: About 10 mg of Compound I monofumarate Pattern 1 (Example 7) was compressed for 5 minutes at 10 MPa with a hydraulic press. XRPD characterization was performed to investigate the polymorphic behavior under compression.
# About 10 mg of Compound I monofumarate Pattern 1 (Example 7) was ground manually with a mortar and pestle for 5 min. Form transformation and degree of crystallinity was evaluated by XRPD.
# Water or ethanol was added drop wise to about 10 mg of Compound I monofumarate Pattern 1 (Example 7) until solids were wetted sufficiently. The samples were ground manually with a mortar and pestle for 3 minutes. Samples are dried under ambient condition for 10 min.
# Form transformation and degree of crystallinity were evaluated by XRPD.
# [5] = Hygroscopicity by DVS at 25° C.; assay type: physicochemical; conditions: for XRPD after DVS test: after humidity cycle 40-0-95-0-40% RH, 25° C.
# Experimental: Hygroscopicity was investigated by DVS at 25° C., using the following method: • Method: 40-0-95-0-40% RH, dm/dt=0.002
# [6] = Solubility in buffers, water and simulated vaginal fluid at 37° C.; conditions: 37° C.
# Experimental: About 4 mg of Compound I Pattern 1 was added into 2 mL of buffer solution.
# (§6) Solubility was tested in five media, pH 3.0 citrate buffer, pH 4.5 acetate buffer, pH 6.8 phosphate buffer, water, simulated vaginal fluid (pH 4.2) at 37° C. for 0.5 h and 2 h.
# The salt amount used is equivalent to 10 mg anhydrous free base. […] The obtained clear solutions were analyzed by pH meter for pH, and solubility was determined by observation.
# as §6
# [7] = test system: HeLa cells
# Experimental: as §1, §2, §3, §4, §5
# [8] = test system: Hs27 cells
# Experimental: as §1, §2, §3, §4, §5
# [9] = test system: C33A cells; experiment: In vitro cytotoxicity, XTT, five days; conditions: read-out: C33A CC50, proliferating C33A cells
# Experimental: as §1, §2, §3, §4, §5
# [10] = ground manually with mortar and pestle for 5 min
# [11] = solution in pH 3.0 100 mM citrate buffer
# [12] = solution in pH 4.5 50 mM acetate buffer
# [13] = solution in pH 6.8 50 mM phosphate buffer
# [14] = solution in simulated vaginal fluid (pH adjusted with 0.2N NaOH)
compound,measurement,setting,value
CCOC(=O)C(C)NP(=O)(COCCn1cnc2c(OC)nc(N)nc21)OCc1ccccc1 (mixture of isomers) [AB12280],CC50,"[1]; read-out: HEK293 CC50, proliferating HEK293 cells, XTT, five days",< 0.16 µM
"CCOC(=O)[C@H](C)NP(=O)(COCCn1cnc2c(OC)nc(N)nc21)OCc1ccccc1.O=C(O)/C=C/C(=O)O (mixture of isomers) [Compound I monofumarate, (±)-(2S)-ethyl-2-((((2-(2-amino-6-methoxy-9H-purin-9-yl)-ethoxy)-methyl)-(benzyloxy)-phosphoryl)-amino)-propionate monofumarate]","HPLC purity, Initial","[2]; listed as Compound I monofumarate Pattern 1, monofumarate",98.6%
same,Degradation of tablets compared with tablets produced from Compound I,"[3]; range of different formulations, purity by HPLC",degraded less
same,Degradation of tablets,[3],far less degradation
same,Form change by XRPD under compression,[4]; compressed 5 minutes at 10 MPa,no form change was observed
same,Crystallinity by XRPD after grinding,[4]; [10],crystallinity slightly decreased
same,Form change by XRPD after grinding,[4]; [10],no form change was observed
same,Form change by XRPD after granulation simulation,"[4]; wetted with water or ethanol, ground 3 minutes, dried","neither in ethanol, nor in water form change was observed"
same,Desorption (%) Cycle 1,"[5]; 0% RH, DVS 25° C.",0.49%
same,Desorption (%) Cycle 2,"[5]; 0% RH, DVS 25° C.",0.09%
same,Sorption (%) Cycle 1,"[5]; 0% RH, DVS 25° C.",0.49%
same,Sorption (%) Cycle 2,"[5]; 0% RH, DVS 25° C.",0.09%
same,Desorption (%) Cycle 1,"[5]; 10% RH, DVS 25° C.",0.62%
same,Desorption (%) Cycle 2,"[5]; 10% RH, DVS 25° C.",0.15%
same,Sorption (%) Cycle 1,"[5]; 10% RH, DVS 25° C.",0.56%
same,Sorption (%) Cycle 2,"[5]; 10% RH, DVS 25° C.",0.18%
same,Desorption (%) Cycle 1,"[5]; 20% RH, DVS 25° C.",0.71%
same,Desorption (%) Cycle 2,"[5]; 20% RH, DVS 25° C.",0.35%
same,Sorption (%) Cycle 1,"[5]; 20% RH, DVS 25° C.",0.66%
same,Sorption (%) Cycle 2,"[5]; 20% RH, DVS 25° C.",0.27%
same,Desorption (%) Cycle 1,"[5]; 30% RH, DVS 25° C.",0.81%
same,Desorption (%) Cycle 2,"[5]; 30% RH, DVS 25° C.",0.47%
same,Sorption (%) Cycle 1,"[5]; 30% RH, DVS 25° C.",0.76%
same,Sorption (%) Cycle 2,"[5]; 30% RH, DVS 25° C.",0.37%
same,Desorption (%) Cycle 1,"[5]; 40% RH, DVS 25° C.",0.93%
same,Desorption (%) Cycle 2,"[5]; 40% RH, DVS 25° C.",0.56%
same,Sorption (%) Cycle 1,"[5]; 40% RH, DVS 25° C.",0.86%
same,Sorption (%) Cycle 2,"[5]; 40% RH, DVS 25° C.",0.47%
same,Desorption (%) Cycle 2,"[5]; 50% RH, DVS 25° C.",0.67%
same,Sorption (%) Cycle 1,"[5]; 50% RH, DVS 25° C.",0.71%
same,Desorption (%) Cycle 2,"[5]; 60% RH, DVS 25° C.",0.85%
same,Sorption (%) Cycle 1,"[5]; 60% RH, DVS 25° C.",0.85%
same,Desorption (%) Cycle 2,"[5]; 70% RH, DVS 25° C.",1.04%
same,Sorption (%) Cycle 1,"[5]; 70% RH, DVS 25° C.",1.02%
same,Desorption (%) Cycle 2,"[5]; 80% RH, DVS 25° C.",1.30%
same,Sorption (%) Cycle 1,"[5]; 80% RH, DVS 25° C.",1.27%
same,Desorption (%) Cycle 2,"[5]; 90% RH, DVS 25° C.",1.84%
same,Sorption (%) Cycle 1,"[5]; 90% RH, DVS 25° C.",1.78%
same,Desorption (%) Cycle 2,"[5]; 95% RH, DVS 25° C.",2.89%
same,Sorption (%) Cycle 1,"[5]; 95% RH, DVS 25° C.",2.89%
same,XRPD after DVS test,[5],"No form change,"
same,Water uptake,"[5]; up to / in 95% RH, DVS 25° C.",about 2.9%
same,pH at 2 hrs,[6]; [11],(3.05)
same,pH at 2 hrs,[6]; [12],(4.36)
same,pH at 2 hrs,[6]; [13],(6.49)
same,pH at 2 hrs,[6]; [14],(5.39)
same,pH at 2 hrs,[6]; solution in water,(3.11)
"CCOC(=O)[C@H](C)N[P@](=O)(COCCn1cnc2c(OC)nc(N)nc21)OCc1ccccc1 (single isomer, unassigned; isomer 1) [AB12280 Isomer 1]",CC50,[7],15.1 µM
same,CC50,[8],23.2 µM
same,CC50,[1],< 0.16 µM
same,CC50,[9],0.2 µM
"CCOC(=O)[C@H](C)N[P@@](=O)(COCCn1cnc2c(OC)nc(N)nc21)OCc1ccccc1 (single isomer, unassigned; isomer 2) [AB12280 Isomer 2]",CC50,[7],16.9 µM
same,CC50,[8],7.62 µM
same,CC50,[1],< 0.16 µM
same,CC50,[9],< 0.16 µM
"CCOC(=O)[C@H](C)NP(=O)(COCCn1cnc2c(OC)nc(N)nc21)OCc1ccccc1 (stereo partly drawn) [Compound I, ethyl(((2-(2-amino-6-methoxy-9H-purin-9-yl)ethoxy)methyl)(benzyloxy)-phosphoryl)-L-alaninate]","HPLC purity, Initial",[2]; listed as Compound I free base Pattern 1,98.7%
same,Degradation of tablets,[3],substantially degrade
same,Desorption (%) Cycle 1,"[5]; 0% RH, DVS 25° C.",0.00%
same,Desorption (%) Cycle 2,"[5]; 0% RH, DVS 25° C.",0.19%
same,Sorption (%) Cycle 1,"[5]; 0% RH, DVS 25° C.",0.00%
same,Sorption (%) Cycle 2,"[5]; 0% RH, DVS 25° C.",0.19%
same,Desorption (%) Cycle 1,"[5]; 10% RH, DVS 25° C.",0.11%
same,Desorption (%) Cycle 2,"[5]; 10% RH, DVS 25° C.",0.37%
same,Sorption (%) Cycle 1,"[5]; 10% RH, DVS 25° C.",0.08%
same,Sorption (%) Cycle 2,"[5]; 10% RH, DVS 25° C.",0.22%
same,Desorption (%) Cycle 1,"[5]; 20% RH, DVS 25° C.",0.23%
same,Desorption (%) Cycle 2,"[5]; 20% RH, DVS 25° C.",0.57%
same,Sorption (%) Cycle 1,"[5]; 20% RH, DVS 25° C.",0.17%
same,Sorption (%) Cycle 2,"[5]; 20% RH, DVS 25° C.",0.30%
same,Desorption (%) Cycle 1,"[5]; 30% RH, DVS 25° C.",0.47%
same,Desorption (%) Cycle 2,"[5]; 30% RH, DVS 25° C.",0.83%
same,Sorption (%) Cycle 1,"[5]; 30% RH, DVS 25° C.",0.28%
same,Sorption (%) Cycle 2,"[5]; 30% RH, DVS 25° C.",0.44%
same,Desorption (%) Cycle 1,"[5]; 40% RH, DVS 25° C.",0.60%
same,Desorption (%) Cycle 2,"[5]; 40% RH, DVS 25° C.",1.09%
same,Sorption (%) Cycle 1,"[5]; 40% RH, DVS 25° C.",0.41%
same,Sorption (%) Cycle 2,"[5]; 40% RH, DVS 25° C.",0.62%
same,Desorption (%) Cycle 2,"[5]; 50% RH, DVS 25° C.",1.48%
same,Sorption (%) Cycle 1,"[5]; 50% RH, DVS 25° C.",0.61%
same,Desorption (%) Cycle 2,"[5]; 60% RH, DVS 25° C.",1.96%
same,Sorption (%) Cycle 1,"[5]; 60% RH, DVS 25° C.",0.85%
same,Desorption (%) Cycle 2,"[5]; 70% RH, DVS 25° C.",2.78%
same,Sorption (%) Cycle 1,"[5]; 70% RH, DVS 25° C.",1.14%
same,Desorption (%) Cycle 2,"[5]; 80% RH, DVS 25° C.",4.33%
same,Sorption (%) Cycle 1,"[5]; 80% RH, DVS 25° C.",1.64%
same,Desorption (%) Cycle 2,"[5]; 90% RH, DVS 25° C.",9.10%
same,Sorption (%) Cycle 1,"[5]; 90% RH, DVS 25° C.",4.27%
same,Desorption (%) Cycle 2,"[5]; 95% RH, DVS 25° C.",14.32%
same,Sorption (%) Cycle 1,"[5]; 95% RH, DVS 25° C.",14.32%
same,XRPD after DVS test,[5],"No form change,"
same,pH at 2 hrs,[6]; [11],(2.98)
same,pH at 2 hrs,[6]; [12],(4.50)
same,pH at 2 hrs,[6]; [13],(6.81)
same,pH at 2 hrs,[6]; [14],(5.53)
same,pH at 2 hrs,[6]; solution in water,(7.55)
